The compounds below were run against T1, Human Polymorphonuclear Leukocyte Elastase (Homo sapiens, UniProt P08246) (assay: Enzyme assay for inhibition of human polymorphonuclear leukocyte elastase via hydrolysis of Boc-AAPAN or Boc-AAPVN). Conditions: pH 7.5, second order rate constant for inactivation of the enzyme, expressed to the nearest thousand, read-out: Kobs/[I].
T1 construct: Crude extract of human polymorphonuclear leukocytes (PMN) containing elastase activity; from tissue; host or cells: human polymorphonuclear leukocytes (crude extract)
T1 sequence (P08246 30-267): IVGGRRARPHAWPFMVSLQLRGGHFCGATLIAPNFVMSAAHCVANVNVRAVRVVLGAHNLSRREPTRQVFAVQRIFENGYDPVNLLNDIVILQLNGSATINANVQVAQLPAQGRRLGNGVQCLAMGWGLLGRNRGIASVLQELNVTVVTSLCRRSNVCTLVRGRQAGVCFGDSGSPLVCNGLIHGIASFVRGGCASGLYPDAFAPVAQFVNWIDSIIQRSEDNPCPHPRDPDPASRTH
Assay type: biochemical
Method in brief: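 Crude human PMN extract as enzyme source, with 0.2 mM Boc-AAPAN in 0.05M TES buffer pH 7.5. Inhibitors in DMSO were added to substrate before the extract, and rate was followed as ΔOD/min at 410 mµ. Values are kobs/I, the second-order inactivation rate constant (per mole per second).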

SMILES	kinact/KI
CCC[C@@H](NC(=O)N1C(=O)C(CC)(CC)[C@@H]1Oc1ccc(C(=O)NC2CN(CC)N(CC)C2)cc1)c1ccc(C)cc1 [Compound 118]	1e+06 M⁻¹ s⁻¹
CCC[C@@H](NC(=O)N1C(=O)C(CC)(CC)[C@@H]1Oc1ccc(C(=O)NCCN2CCC(O)CC2)cc1)c1ccc(C)cc1 [Compound 120, [S-(R+,S*)]-3,3-diethyl-2-[4-[[[2-(4-hydroxy-1-piperidinyl)ethyl]amino]carbonyl]phenoxy]-N-[1-(4-methyl-phenyl)butyl]-4-oxo-1-azetidine-carboxamide]	1.73e+06 M⁻¹ s⁻¹
CCC[C@@H](NC(=O)N1C(=O)C(CC)(CC)[C@@H]1Oc1ccc(C(=O)NCCN2CCCCCC2)cc1)c1ccc(C)cc1 [Compound 121]	2.07e+06 M⁻¹ s⁻¹
CCC[C@@H](NC(=O)N1C(=O)C(CC)(CC)[C@@H]1Oc1ccc(C(=O)N(C)CCN2CCCCCC2)cc1)c1ccc(C)cc1 [Compound 122]	2.9e+06 M⁻¹ s⁻¹
CCC[C@@H](NC(=O)N1C(=O)C(CC)(CC)[C@@H]1Oc1ccc(C(=O)NCCN2CCCC(O)C2)cc1)c1ccc(C)cc1 (stereo partly shown) [Compound 123]	1.53e+06 M⁻¹ s⁻¹
CCC[C@@H](NC(=O)N1C(=O)C(CC)(CC)[C@@H]1Oc1ccc(C(=O)N(CCC)CCC)cc1)c1ccc(C)cc1 [Compound 127]	990000 M⁻¹ s⁻¹
CCC[C@@H](NC(=O)N1C(=O)C(CC)(CC)[C@@H]1Oc1ccc(C(=O)N(CC)CC)cc1)c1ccc(C)cc1 [Compound 128]	1.45e+06 M⁻¹ s⁻¹
CCC[C@@H](NC(=O)N1C(=O)C(CC)(CC)[C@@H]1Oc1ccc(C(=O)N(C)CCN2CCC(O)CC2)cc1)c1ccc(C)cc1 [Compound 129]	1.99e+06 M⁻¹ s⁻¹
CCC[C@@H](NC(=O)N1C(=O)C(CC)(CC)[C@@H]1Oc1ccc(C(=O)N(C)CCN2CCC(=O)CC2)cc1)c1ccc(C)cc1 [Compound 130]	2.3e+06 M⁻¹ s⁻¹
CCC[C@@H](NC(=O)N1C(=O)C(CC)(CC)[C@@H]1Oc1ccc(C(=O)NCCN2CCC(O)C2)cc1)c1ccc(C)cc1 (stereo partly shown) [Compound 131]	1.11e+06 M⁻¹ s⁻¹
CCC[C@@H](NC(=O)N1C(=O)C(CC)(CC)[C@@H]1Oc1ccc(C(=O)N(CC)CCN2CCCCC2)cc1)c1ccc(C)cc1 [Compound 132]	1.24e+06 M⁻¹ s⁻¹
CCC[C@@H](NC(=O)N1C(=O)C(CC)(CC)[C@@H]1Oc1ccc(C(=O)Nc2ccc(F)cc2)cc1)c1ccc(C)cc1 [Compound 134]	724000 M⁻¹ s⁻¹
CCC[C@@H](NC(=O)N1C(=O)C(CC)(CC)[C@@H]1Oc1ccc(C(=O)Nc2cccc(Cl)c2)cc1)c1ccc(C)cc1 [Compound 135]	201000 M⁻¹ s⁻¹
CCC[C@@H](NC(=O)N1C(=O)C(CC)(CC)[C@@H]1Oc1ccc(C(=O)N(CCN2CCCCC2)Cc2cccnc2)cc1)c1ccc(C)cc1 [Compound 139]	1.19e+06 M⁻¹ s⁻¹
CCC[C@@H](NC(=O)N1C(=O)C(CC)(CC)[C@@H]1Oc1ccc(C(=O)NC(C)CCCN(CC)CC)cc1)c1ccc(C)cc1 (stereo partly shown) [Compound 140]	1.36e+06 M⁻¹ s⁻¹
CCC[C@@H](NC(=O)N1C(=O)C(CC)(CC)[C@@H]1Oc1ccc(C(=O)N(C)CCN2CCN(C(=O)OC(C)(C)C)CC2)cc1)c1ccc(C)cc1 [Compound 142]	3.47e+06 M⁻¹ s⁻¹

SMILES	kinact/KI
CCC[C@@H](NC(=O)N1C(=O)C(CC)(CC)[C@@H]1Oc1ccc(C(=O)N(CCN(C)C)CCN(C)C)cc1)c1ccc(C)cc1 [Compound 143]	1.88e+06 M⁻¹ s⁻¹
CCC[C@@H](NC(=O)N1C(=O)C(CC)(CC)[C@@H]1Oc1ccc(C(=O)N(CCN(CC)CC)CCN(CC)CC)cc1)c1ccc(C)cc1 [Compound 144]	1.51e+06 M⁻¹ s⁻¹
CCC[C@@H](NC(=O)N1C(=O)C(CC)(CC)[C@@H]1Oc1ccc(C(=O)N2CC(C)NC(C)C2)cc1)c1ccc(C)cc1 (stereo partly shown) [Compound 146]	1.52e+06 M⁻¹ s⁻¹
CCC[C@@H](NC(=O)N1C(=O)C(CC)(CC)[C@@H]1Oc1ccc(C(=O)N(C)CCN2CCNCC2)cc1)c1ccc(C)cc1 [Compound 151]	1.19e+06 M⁻¹ s⁻¹
CCC[C@@H](NC(=O)N1C(=O)C(CC)(CC)[C@@H]1Oc1ccc(C(=O)N2CCCNCC2)cc1)c1ccc(C)cc1 [Compound 152]	1.95e+06 M⁻¹ s⁻¹
CCC[C@@H](NC(=O)N1C(=O)C(CC)(CC)[C@@H]1Oc1ccc(C(=O)N(C)CC(O)C(O)C(O)C(O)CO)cc1)c1ccc(C)cc1 (stereo partly shown) [Compound 156]	1.2e+06 M⁻¹ s⁻¹
CCC[C@@H](NC(=O)N1C(=O)C(CC)(CC)[C@@H]1Oc1ccc(C(=O)N(C)CC(OC(C)=O)C(OC(C)=O)C(OC(C)=O)C(COC(C)=O)OC(C)=O)cc1)c1ccc(C)cc1 (stereo partly shown) [Compound 157]	1.17e+06 M⁻¹ s⁻¹
CCC[C@@H](NC(=O)N1C(=O)C(CC)(CC)[C@@H]1Oc1ccc(C(=O)NC2CCCN(CC)C2)cc1)c1ccc(C)cc1 (stereo partly shown) [Compound 162]	949000 M⁻¹ s⁻¹
CCC[C@@H](NC(=O)N1C(=O)C(CC)(CC)[C@@H]1Oc1ccc(C(=O)N(C)CCN(C)Cc2ccco2)cc1)c1ccc(C)cc1 [Compound 163]	1.82e+06 M⁻¹ s⁻¹
CCC[C@@H](NC(=O)N1C(=O)C(CC)(CC)[C@@H]1Oc1ccc(C(=O)N(C)CCCC(=O)O)cc1)c1ccc(C)cc1 [Compound 164]	1.06e+06 M⁻¹ s⁻¹
CCC[C@@H](NC(=O)N1C(=O)C(CC)(CC)[C@@H]1Oc1ccc(C(=O)N(C)CCCC(=O)NS(=O)(=O)c2ccccc2)cc1)c1ccc(C)cc1 [Compound 165]	1.55e+06 M⁻¹ s⁻¹
C=CCN(C)CCN(C)C(=O)c1ccc(O[C@@H]2N(C(=O)N[C@H](CCC)c3ccc(C)cc3)C(=O)C2(CC)CC)cc1 [Compound 166]	1.36e+06 M⁻¹ s⁻¹
CCC[C@@H](NC(=O)N1C(=O)C(CC)(CC)[C@@H]1Oc1ccc(C(=O)N(C)CCO)cc1)c1ccc(C)cc1 [Compound 169]	1.46e+06 M⁻¹ s⁻¹
CCC[C@@H](NC(=O)N1C(=O)C(CC)(CC)[C@@H]1Oc1ccc(C(=O)N(C)CCOC(=O)N(C)C)cc1)c1ccc(C)cc1 [Compound 170]	1.52e+06 M⁻¹ s⁻¹
CCC[C@@H](NC(=O)N1C(=O)C(CC)(CC)[C@@H]1Oc1ccc(C(=O)N(C)CCN(C)CC(=O)OC(C)(C)C)cc1)c1ccc(C)cc1 [Compound 171]	1.83e+06 M⁻¹ s⁻¹

Next, values leading:

kinact/KI	SMILES
2.69e+06 M⁻¹ s⁻¹	CCC[C@@H](NC(=O)N1C(=O)C(CC)(CC)[C@@H]1Oc1ccc(C(=O)N2CCC[C@H]2CN2CCCC2)cc1)c1ccc(C)cc1 [Compound 119]
1.96e+06 M⁻¹ s⁻¹	CCC[C@@H](NC(=O)N1C(=O)C(CC)(CC)[C@@H]1Oc1ccc(C(=O)N(C)CCN2CCCC(O)C2)cc1)c1ccc(C)cc1 (stereo partly shown) [Compound 124]
2.05e+06 M⁻¹ s⁻¹	CCC[C@@H](NC(=O)N1C(=O)C(CC)(CC)[C@@H]1Oc1ccc(C(=O)N(C)CCN(C)Cc2ccccc2)cc1)c1ccc(C)cc1 [Compound 125]
3.48e+06 M⁻¹ s⁻¹	CCC[C@@H](NC(=O)N1C(=O)C(CC)(CC)[C@@H]1Oc1ccc(C(=O)N(C)CCN2CCC(OCc3ccccc3)CC2)cc1)c1ccc(C)cc1 [Compound 126]
1.52e+06 M⁻¹ s⁻¹	CCC[C@@H](NC(=O)N1C(=O)C(CC)(CC)[C@@H]1Oc1ccc(C(=O)N(CCN2CCCCC2)Cc2ccccc2)cc1)c1ccc(C)cc1 [Compound 133]
1.38e+06 M⁻¹ s⁻¹	CCC[C@@H](NC(=O)N1C(=O)C(CC)(CC)[C@@H]1Oc1ccc(C(=O)N(CCN(C)C)Cc2ccccc2)cc1)c1ccc(C)cc1 [Compound 137]
960000 M⁻¹ s⁻¹	CCC[C@@H](NC(=O)N1C(=O)C(CC)(CC)[C@@H]1Oc1ccc(C(=O)N(C)CCN2CCC(O)C2)cc1)c1ccc(C)cc1 (stereo partly shown) [Compound 138]
1.51e+06 M⁻¹ s⁻¹	CCC[C@@H](NC(=O)N1C(=O)C(CC)(CC)[C@@H]1Oc1ccc(C(=O)NCCN2CCC[C@H]2CO)cc1)c1ccc(C)cc1 [Compound 141]
2.88e+06 M⁻¹ s⁻¹	CCC[C@@H](NC(=O)N1C(=O)C(CC)(CC)[C@@H]1Oc1ccc(C(=O)N(C)CCN(C)Cc2cccnc2)cc1)c1ccc(C)cc1 [Compound 145]
2.49e+06 M⁻¹ s⁻¹	CCC[C@@H](NC(=O)N1C(=O)C(CC)(CC)[C@@H]1Oc1ccc(C(=O)N(C)CC[N+](C)([O-])Cc2ccccc2)cc1)c1ccc(C)cc1 (stereo partly shown) [Compound 147]
2.39e+06 M⁻¹ s⁻¹	CCC[C@@H](NC(=O)N1C(=O)C(CC)(CC)[C@@H]1Oc1ccc(C(=O)N(C)CCN(C)Cc2ccncc2)cc1)c1ccc(C)cc1 [Compound 148]
3.27e+06 M⁻¹ s⁻¹	CCC[C@@H](NC(=O)N1C(=O)C(CC)(CC)[C@@H]1Oc1ccc(C(=O)N2CCC[C@H]2CN(C)Cc2ccccc2)cc1)c1ccc(C)cc1 [Compound 149]
2.16e+06 M⁻¹ s⁻¹	CCC[C@@H](NC(=O)N1C(=O)C(CC)(CC)[C@@H]1Oc1ccc(C(=O)N(C)CCN(C)Cc2ccccn2)cc1)c1ccc(C)cc1 [Compound 150]
2.8e+06 M⁻¹ s⁻¹	CCC[C@@H](NC(=O)N1C(=O)C(CC)(CC)[C@@H]1Oc1ccc(C(=O)N(C)CCN(C)CCc2ccccc2)cc1)c1ccc(C)cc1 [Compound 153]
1.67e+06 M⁻¹ s⁻¹	CCC[C@@H](NC(=O)N1C(=O)C(CC)(CC)[C@@H]1Oc1ccc(C(=O)N2CCC[C@@H]2CN2CCCC2)cc1)c1ccc(C)cc1 [Compound 154]
1.98e+06 M⁻¹ s⁻¹	CCC[C@@H](NC(=O)N1C(=O)C(CC)(CC)[C@@H]1Oc1ccc(C(=O)N2CCCN(Cc3ccccc3)CC2)cc1)c1ccc(C)cc1 [Compound 155]
1.08e+06 M⁻¹ s⁻¹	CCC[C@@H](NC(=O)N1C(=O)C(CC)(CC)[C@@H]1Oc1ccc(C(=O)N(C)CCN(C)Cc2cccc3ccccc23)cc1)c1ccc(C)cc1 [Compound 158]
1.02e+06 M⁻¹ s⁻¹	CCC[C@@H](NC(=O)N1C(=O)C(CC)(CC)[C@@H]1Oc1ccc(C(=O)N(C)CCN(Cc2ccccc2)Cc2ccccc2)cc1)c1ccc(C)cc1 [Compound 161]
1.29e+06 M⁻¹ s⁻¹	CCC[C@@H](NC(=O)N1C(=O)C(CC)(CC)[C@@H]1Oc1ccc(C(=O)N(C)CCCN(C)Cc2ccccc2)cc1)c1ccc(C)cc1 [Compound 167]
2.16e+06 M⁻¹ s⁻¹	CCC[C@@H](NC(=O)N1C(=O)C(CC)(CC)[C@@H]1Oc1ccc(C(=O)N(C)CCCCCCN(C)Cc2ccccc2)cc1)c1ccc(C)cc1 [Compound 168]
1.54e+06 M⁻¹ s⁻¹	CCC[C@@H](NC(=O)N1C(=O)C(CC)(CC)[C@@H]1Oc1ccc(C(=O)N(C)C2CCCN(CC)C2)cc1)c1ccc(C)cc1 (stereo partly shown) [Compound 172]
